In brackets after ≈: the same amount, converted by molar mass.
Columns and labels:
[1] = system: Bipolaris maydis; test: Antifungal activity against Bipolaris maydis relative to control; assay type: functional; parameters: concentration or dose not given beside the values
[2] = system: Alternaria solani; test: Antifungal activity against Alternaria solani relative to control; assay type: functional; parameters: concentration or dose not given beside the values
[3] = system: Trichophyton interdigitale; test: Antifungal activity against Trichophyton interdigitale; assay type: functional
[4] = system: Alternaria alternata; test: Antifungal activity against Alternaria alternata; assay type: functional
[5] = system: Cytospora mali; test: Antifungal activity against Valsa mali; assay type: functional
[6] = system: Alternaria brassicae; test: Antifungal activity against Alternaria brassicae; assay type: functional
[7] = system: Colletotrichum gloeosporioides; test: Antifungal activity against Colletotrichum gloeosporioides; assay type: functional
[8] = system: Sclerotinia sclerotiorum; test: Antifungal activity against Sclerotinia sclerotiorum; assay type: functional, organism-based
[9] = system: Fusarium solani; test: Antifungal activity against Fusarium solani; assay type: functional, organism-based

Cc1nccc2c1[nH]c1cc(O)ccc12
Activity [1]: 31.8%
Activity [2]: 26.3%

Cc1nccc2c1[nH]c1ccc(Br)cc12
Activity [1]: 86.4%
Activity [2]: 73.7%

CCCCCCCc1nccc2c1[nH]c1ccccc12
MIC [3]: 12.5 µg/mL (≈ 46.9 µM)

CCCCCCc1nccc2c1[nH]c1ccccc12
MIC [3]: 25 µg/mL (≈ 99.1 µM)

Cc1nccc2c1[nH]c1cc(OC(=O)NC(C)C)ccc12
Activity [1]: 22.7%
Activity [2]: 21.1%

CCC(C)Cc1nccc2c1[nH]c1ccccc12 (stereo not drawn)
MIC [3]: 50 µg/mL (≈ 210 µM)

O=C1[C@@H]2Cc3c([nH]c4ccccc34)C(c3ccc(O)cc3)N2C(=O)[C@@H]2CCCN12 (stereo partly drawn)
MIC [4]: 12.5 µg/mL (≈ 32.3 µM)
MIC [5]: 12.5 µg/mL (≈ 32.3 µM)
MIC [6]: 6.25 µg/mL (≈ 16.1 µM)
MIC [7]: 12.5 µg/mL (≈ 32.3 µM)

c1ccc(C[C@@H]2COC(c3nccc4c3[nH]c3ccccc34)=N2)cc1
EC50 [8]: 12 µM

Cc1ccc2c(c1)c1c(n2C)C=[N+](c2ccc(F)cc2)CC1
EC50 [9]: 5.44 µM

Cc1cccc([N+]2=Cc3c(c4cc(C)ccc4n3C)CC2)c1
EC50 [9]: 2.67 µM

c1ccc([C@@H]2COC(c3nccc4c3[nH]c3ccccc34)=N2)cc1
EC50 [8]: 17.3 µM

Cc1cccc([N+]2=Cc3c(c4ccccc4n3C)CC2)c1
EC50 [9]: 3.03 µM

O=C(O)c1cc2c([nH]c3ccccc32)c(-c2ccsc2)n1
EC50 [8]: 11.9 µM

CC(C)Cc1nccc2c1[nH]c1ccccc12
MIC [3]: 100 µg/mL (≈ 446 µM)

Cc1nccc2c1[nH]c1ccc([N+](=O)[O-])cc12
Activity [1]: 31.6%
Activity [2]: 33.3%

Cn1c2c(c3ccccc31)CC[N+](c1ccc(F)cc1)=C2
EC50 [9]: 2.18 µM

Cc1ccc2c(c1)c1c(n2C)C=[N+](c2ccc(Cl)cc2)CC1
EC50 [9]: 2.68 µM

CCCCCc1nccc2c1[nH]c1ccccc12
MIC [3]: 50 µg/mL (≈ 210 µM)

O=C1[C@@H]2Cc3c([nH]c4ccccc34)C(c3ccccc3)N2C(=O)[C@@H]2CCCN12 (stereo partly drawn)
MIC [4]: 12.5 µg/mL (≈ 33.7 µM)
MIC [5]: 12.5 µg/mL (≈ 33.7 µM)
MIC [6]: 12.5 µg/mL (≈ 33.7 µM)
MIC [7]: 12.5 µg/mL (≈ 33.7 µM)

CC(C)C1c2[nH]c3ccccc3c2C[C@H]2C(=O)N3CCC[C@H]3C(=O)N12 (stereo partly drawn)
MIC [4]: 12.5 µg/mL (≈ 37 µM)
MIC [5]: 12.5 µg/mL (≈ 37 µM)
MIC [6]: 12.5 µg/mL (≈ 37 µM)
MIC [7]: 12.5 µg/mL (≈ 37 µM)

O=C(O)c1cc2c([nH]c3ccccc32)c(-c2ccc(Br)cc2)n1
EC50 [8]: 5.38 µM

O=C1[C@@H]2Cc3c([nH]c4ccccc34)C(c3ccc([N+](=O)[O-])cc3)N2C(=O)[C@@H]2CCCN12 (stereo partly drawn)
MIC [4]: 12.5 µg/mL (≈ 30 µM)
MIC [5]: 12.5 µg/mL (≈ 30 µM)
MIC [6]: 12.5 µg/mL (≈ 30 µM)
MIC [7]: 6.25 µg/mL (≈ 15 µM)

COc1cc(C2c3[nH]c4ccccc4c3C[C@H]3C(=O)N4CCC[C@H]4C(=O)N23)ccc1O (stereo partly drawn)
MIC [4]: 12.5 µg/mL (≈ 29.9 µM)
MIC [5]: 6.25 µg/mL (≈ 15 µM)
MIC [6]: 6.25 µg/mL (≈ 15 µM)
MIC [7]: 12.5 µg/mL (≈ 29.9 µM)

CCCCCCCCCCc1nccc2c1[nH]c1ccccc12
MIC [3]: 1.6 µg/mL (≈ 5.19 µM)

CC(C)[C@@H]1COC(c2nccc3c2[nH]c2ccccc23)=N1
EC50 [8]: 15.5 µM

Cc1nccc2c1[nH]c1cc(OC(=O)C(C)(C)C)ccc12
Activity [1]: 78.9%
Activity [2]: 66.7%

Cc1ccccc1[N+]1=Cc2c(c3ccccc3n2C)CC1
EC50 [9]: 2.35 µM

CC[C@@H](C)[C@@H]1COC(c2nccc3c2[nH]c2ccccc23)=N1
EC50 [8]: 17.7 µM

CCCCCCCCCc1nccc2c1[nH]c1ccccc12
MIC [3]: 3.2 µg/mL (≈ 10.9 µM)

Cc1ccc2c(c1)c1c(n2C)C=[N+](c2ccccc2C)CC1
EC50 [9]: 3.47 µM

CC(C)(C)[C@@H]1COC(c2nccc3c2[nH]c2ccccc23)=N1
EC50 [8]: 13 µM

CC(C)CCc1nccc2c1[nH]c1ccccc12
MIC [3]: 50 µg/mL (≈ 210 µM)

Cc1ccc([N+]2=Cc3c(c4ccccc4n3C)CC2)cc1
EC50 [9]: 2.47 µM

CC[C@@H]1COC(c2nccc3c2[nH]c2ccccc23)=N1
EC50 [8]: 22.4 µM

CCCCCCCCc1nccc2c1[nH]c1ccccc12
MIC [3]: 3.2 µg/mL (≈ 11.4 µM)

O=C(Nc1ccccc1-c1ccc(Cl)cc1)c1cccnc1Cl [BOSCALID]
EC50 [8]: 0.9 µM

N#Cc1c(Cl)c(Cl)c(Cl)c(C#N)c1Cl [CHLOROTHALONIL]
Activity [1]: 91.3%
Activity [2]: 73.3%

Cc1nc(C(=O)O)cc2c1[nH]c1ccccc12 [HARMAN-3-CARBOXYLIC ACID]
Activity [1]: 21.1%
Activity [2]: 33.3%

Cc1nccc2c1[nH]c1ccccc12 [HARMAN]
Activity [1]: 36.4%
Activity [2]: 68.4%
MIC [3]: 200 µg/mL (≈ 1100 µM)

Reference: ChEMBL document CHEMBL5136985, “Natural and synthetic β-carboline as a privileged antifungal scaﬀolds” (Eur J Med Chem, 2022)
